Numbering of substitutions follows the chain as printed. Like-named read-outs stand apart in the source and are kept apart here.
Key:
SULT1E1 = molecular target: T1, SULT1E1 (Homo sapiens, UniProt P49888); test: Equilibrium binding studies (SULT1E1 intrinsic fluorescence); conditions: for Kd: pH 7.4, 25 °C, spread = one SD
T1 construct: E. coli codon-optimized SULT1E1 coding region inserted into the PreScission Protease cleavage site; His/GST/MBP triple tag (N, cleaved yes); made in house; host or cells: E. coli BL21(DE3)
T1 sequence (P49888 1-294): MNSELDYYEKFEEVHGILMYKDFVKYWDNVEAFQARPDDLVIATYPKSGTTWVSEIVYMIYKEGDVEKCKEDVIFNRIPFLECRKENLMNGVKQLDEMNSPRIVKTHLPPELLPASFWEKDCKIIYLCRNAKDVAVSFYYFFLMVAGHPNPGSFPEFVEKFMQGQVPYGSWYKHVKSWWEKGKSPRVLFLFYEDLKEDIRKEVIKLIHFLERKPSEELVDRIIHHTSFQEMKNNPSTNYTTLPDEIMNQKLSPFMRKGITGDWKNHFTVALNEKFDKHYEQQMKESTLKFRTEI
Experimental: The binding of inhibitors to WT and mutant SULT1E1 was monitored via ligand-induced changes in the intrinsic fluorescence of the enzyme (λex= 290 nm, λem= 340 nm) ([4]). […] C. Titrations were performed in triplicate and the averaged data were least-squares fit to the following quadratic, single-site binding model: Io − ΔI∙(([L]+Etot + Kd) − [([L]+Etot + Kd)^2 − (4∙[L]∙Etot)]^1/2)/2∙Etot, where Io and ΔI represent fluorescent intensity at zero and infinite [L].

[1] = molecular target: T2, spin-labeled SULT1E1, spin label attached at Cys residue 150 (C69S/N150C) (Homo sapiens, UniProt P49888, C69S/N150C); test: Initial-rate studies, spin-labeled construct (label at Cys 150); assay type: biochemical; conditions: spin label at Cys 150; parentheses = one SD; read-out: Ki OH-PCB1
T2 construct: E. coli codon-optimized SULT1E1 coding region inserted into the PreScission Protease cleavage site; His/GST/MBP triple tag (N, cleaved yes); made in house; host or cells: E. coli BL21(DE3)
T2 sequence (P49888 1-294 C69S/N150C): T1 sequence (P49888 1-294) with C69S, N150C
Experimental: Spin labels were attached to the SULT1E1 scaffold at Cys residues that were site-specifically incorporated via PCR-based mutagenesis. Prior to creating spin-label attachment constructs, reactive Cys was removed from the native scaffold. Only one of the four native SULT1E1 Cys (i.e., C69) reacts with DTNB ([39]), and mutagenic conversion of C69 to ser produced a stable, fully active non-DTNB-reactive scaffold. Five individual cys-attachment constructs were prepared from the C69S mutant (G16C, K25C, N150C, Q163C, and N233C). Mutants were labeled (see, Experimental procedures) and the initial rate parameters (kcat, Km and Ki) of each spin-labeled mutant were determined (see, Experimental procedures, Initial-Rate studies) to evaluate whether the catalytic integrity of the constructs had been compromised by the insertions and/or spin label attachments. […]
Labels (N-cyclohexylmale-imide or 3-maleimido-PROXYL) were added in 20-fold excess over reactive cysteine to a solution containing SULT1E1 construct (50 μM active sites), 0.50 mM PAP, and 50 mM KPO4 (pH 7.4), 25 °C ± 2 deg. […] The reactions were monitored by using DTNB to measure unreacted cysteine and were considered complete when >98% of the cysteine had reacted (∼3 h).
C. Reaction progress was monitored via the fluorescence change associated with 1-HP sulfonation (λex = 325 nm, λem = 370 nm ([51], [52])). […]

[2] = system: estrogen receptor (ER) activation in Ishikawa cells expressing F75A/F80A SULT1E1; test: cells; assay type: cell-based, human; conditions: Homo sapiens, Ishikawa; F75A/F80A cell line; OH-PCB titration at 10 nM E2 (footnote a); NE = No Effect; read-out: Ligand EC50, ER activation
Experimental: pcDNA 3.1 constructs harboring either the SULT1E1 WT or double mutant (F75A/F80A) coding regions were generated using Gibson Assembly ([74]). The vectors were linearized using BGIII. Ishikawa cells were grown at 37 °C ± 2 deg. C in growth medium (MEM media containing 10% v/v FBS). At confluence, the cells were washed (3×) with PBS media before coating with an Opti-MEM solution containing a linearized construct (50 ng μg^−1) and lipofectamine (2.5 units ml^−1). After 24 h at 37 °C ± 2 deg. C, cells were washed (3×) with PBS before adding growth medium containing neomycin (400 μg ml^−1) to select transfectants. Selective growth medium was replenished every 48 h until single colonies could be isolated (∼3–6 weeks). Single colonies were transferred using trypsin digest (0.05%) to 12-well plates and grown at 37 °C ± 2 deg. C to confluence for further experimentation and storage.
Transfected Ishikawa cells were grown at 37 °C ± 2 deg. C to 60 to 70% confluency in MEM containing 10% v/v FBS. Cells were then transferred to 96-well tissue culture plates and grown at 37 °C ± 2 deg. C to 80% confluency in MEM containing 10% v/v charcoal filtered FBS. The plate was then washed with PBS and grown at 37 °C ± 2 deg. C for 24 h in MEM without FBS. Estradiol (0–3.0 μM) and OH-PCB (0–1.0 μM) solubilized in neat DMSO were added and cells were incubated at 37 °C ± 2 deg. C for 5 days. The final concentrations of DMSO were ≤0.10%. Cells were then washed twice with PBS before adding pNpp (5.0 mM) in PBS ([75]). Following incubation with pNpp for 3 h at 25 °C ± 2 deg. C, wells were read at 405 nm using a Synergy HT BioTek Plate Reader.

Oc1ccc(-c2c(Cl)cccc2Cl)cc1 [OH-PCB1, 4ʹ-OH-2,6-dichlorobiphenol]
Kd (SULT1E1; E2 4.0 μM (higher partner concentration), PAP 300 μM, read-out: Kd, ligand binding to enzyme species E⋅PAP⋅E2): 62 nM
Kd (SULT1E1; E2 4.0 μM, no PAP, read-out: Kd, ligand binding to enzyme species E⋅E2): 66 nM
fold tighter binding in the presence of the partner ligand (OH-PCB1/E2 interaction) (SULT1E1; OH-PCB1: E⋅E2 versus E, E2: E⋅PAP⋅OH-PCB1 versus E⋅PAP): ~12 fold
Kd (SULT1E1; PAP 300 μM, read-out: Kd, ligand binding to enzyme species E⋅PAP): 780 nM
Kd (SULT1E1; free enzyme E, read-out: Kd, ligand binding to enzyme species E): 750 nM
Ki [1]: 65 nM
EC50 [2]: > 1000 nM

— publication PMC7949139, “The molecular basis of OH-PCB estrogen receptor activation” (The Journal of Biological Chemistry, 2021)
